Measured values from patent US20120115848A1, “Inhibitors of Polo-Like Kinase” (ELAN PHARMACEUTICALS, INC., priority 2010, published 2012).

Assays:
PLK3 = molecular target: T1, PLK3 (Homo sapiens, UniProt Q9H4B4); assay: PLK TR-FRET peptide assay (PLK3); format: biochemical; conditions: class symbols
T1 construct: GST (N)
Procedure: (§1) Compounds as described herein (compounds of Formula I, e.g., compounds of the above Examples) are tested for their in vitro kinase activities using various PLK assays. An exemplary assay procedure is described below.
(§2) (1) Test compound solution preparation: prepare 4× compound solution in PLK assay buffer (50 mM HEPES, 10 mM MgCl2, 1 mM EGTA, 0.01% Tween-20, pH7.4). DTT is added to the buffer just before the experiment to a final concentration of 2 mM. Add 2.5 μl/well to a black 384-well low volume plate (4% DMSO at this step). (2) Kinase preparation: Prepare 2×GST-PLK 1, 2 or 3 (e.g., CarnaBio) solutions in assay buffer (6 nM for PLK1, 6 nM for PLK2 and 0.2 nM for PLK3). Add 5 μl/well, shake the plate, incubate the enzyme with compound at ret. Time for 15 min. (3) ATP/substrate mixture preparation: Prepare 4× (ATP/ULight-Topo Ha peptide substrate; e.g., Perkin Elmer) mixture in assay buffer (0.4 mM ATP/200 nM peptide). Add 2.5 μl/well, shake the plate and incubate at ret. Time. Reactions time: 60 min for PLK1, 60 min for PLK2 and 15 min for PLK3 (4) EDTA preparation: Dilute 0.5M EDTA to 24 mM with detection buffer. Add 5 μl/well to the plate, shake the plate well for 5 min. (5) Prepare 4× Eu-anti-P-Topo Ha (T1342) (e.g., Perkin Elmer) solution (8 nM) in detection buffer (50 Tris-HCl, 150 mM NaCl, 0.5% BSA, PH7.5). Add 5 μl/well to the plate, shake the plate and incubate at ret. Time for 1 h before reading on Envision at 665 nm/615 nm. The fluorescent signal as a function of compound concentration is used to determine the compound IC50.

PLK2 = molecular target: T2, PLK2 (Homo sapiens, UniProt Q9NYY3); assay: PLK TR-FRET peptide assay (PLK2); format: biochemical; conditions: for selectivity relative to PLK1: compared to analogous compounds of WO 2011/079118; for activity with respect to PLK2: in vitro IC50 compared to analogous compounds of WO 2011/079118 (R1 methyl instead of fused ring)
T2 construct: GST (N)
T2 sequence (Q9NYY3 whole entry, the tested form may be a part): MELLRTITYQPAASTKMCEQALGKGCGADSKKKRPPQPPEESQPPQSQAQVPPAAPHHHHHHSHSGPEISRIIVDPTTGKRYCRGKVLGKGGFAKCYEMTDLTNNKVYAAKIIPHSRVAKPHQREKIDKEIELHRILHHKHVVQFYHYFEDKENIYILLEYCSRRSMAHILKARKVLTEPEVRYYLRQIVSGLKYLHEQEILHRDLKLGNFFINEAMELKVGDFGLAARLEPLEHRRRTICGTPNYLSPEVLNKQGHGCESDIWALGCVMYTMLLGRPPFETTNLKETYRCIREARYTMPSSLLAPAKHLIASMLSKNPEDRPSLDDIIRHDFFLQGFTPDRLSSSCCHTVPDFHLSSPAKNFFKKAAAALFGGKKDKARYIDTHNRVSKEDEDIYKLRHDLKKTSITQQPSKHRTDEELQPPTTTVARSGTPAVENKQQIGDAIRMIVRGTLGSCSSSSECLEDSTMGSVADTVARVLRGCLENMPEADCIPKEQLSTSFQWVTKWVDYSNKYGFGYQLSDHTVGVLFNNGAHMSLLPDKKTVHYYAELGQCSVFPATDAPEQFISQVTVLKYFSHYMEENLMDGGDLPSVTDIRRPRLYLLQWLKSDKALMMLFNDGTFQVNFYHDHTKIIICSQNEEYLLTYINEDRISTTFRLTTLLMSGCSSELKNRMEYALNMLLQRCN
Procedure: as §1, §2

PLK1 = molecular target: T3, PLK1 (Homo sapiens, UniProt P53350); assay: PLK TR-FRET peptide assay (PLK1); format: biochemical
T3 construct: GST (N)
T3 sequence (P53350 whole entry): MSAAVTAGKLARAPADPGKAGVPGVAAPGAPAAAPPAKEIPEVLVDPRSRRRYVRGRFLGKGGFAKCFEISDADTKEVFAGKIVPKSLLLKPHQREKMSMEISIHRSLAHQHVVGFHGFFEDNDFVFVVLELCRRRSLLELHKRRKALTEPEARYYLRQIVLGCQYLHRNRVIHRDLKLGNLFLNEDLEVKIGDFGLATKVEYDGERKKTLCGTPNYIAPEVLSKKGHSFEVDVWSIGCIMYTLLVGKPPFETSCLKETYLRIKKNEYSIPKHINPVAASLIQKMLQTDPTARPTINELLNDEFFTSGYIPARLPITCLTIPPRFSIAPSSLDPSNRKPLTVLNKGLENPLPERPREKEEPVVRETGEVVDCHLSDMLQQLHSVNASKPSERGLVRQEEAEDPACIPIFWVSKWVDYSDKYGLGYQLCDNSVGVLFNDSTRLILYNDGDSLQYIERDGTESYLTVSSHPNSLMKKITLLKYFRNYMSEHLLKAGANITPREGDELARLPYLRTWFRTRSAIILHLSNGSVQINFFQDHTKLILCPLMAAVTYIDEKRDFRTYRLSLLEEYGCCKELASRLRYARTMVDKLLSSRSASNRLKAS
Procedure: as §1, §2

[1] = tested on: HEK-293 cells expressing α-synuclein and PLK2; assay: 293-Syn/PLK2 cell assay (ratio of p-Ser-129 α-synuclein to total synuclein, ELISA); format: cell-based; conditions: for IC50: Homo sapiens, HEK293, HEK-293 cells expressing α-synuclein and PLK2, ratio of phosphorylated synuclein to total synuclein; for cell activity: cellular IC50 compared to analogous compounds of WO 2011/079118
Procedure: Compounds as described herein (compounds of Formula I, e.g., compounds of the above Examples) are tested for their activity in HEK-293 cells expressing α-synuclein and PLK2. An exemplary assay procedure is described below.
(1) Plate HEK-293 cells stably transfected with α-synuclein in 10 cm dishes (Corning) at […] in 10% FCS/DMEM. (2) Transfect cells with PLK2 (PLK2-pCMV6 (Origene), at a concentration of 24 μg/dish and 72 μl Fugene6/dish (Roche)). (3) Trypsinize cells the following day and plate at 30,000 cells/well in PDL coated 96 well tissue culture plates (Becton Dickinson). (4) Starting with compounds at a concentration of 10 mM solutions, prepare five 1:3 serial dilutions in DMSO. (5) Dilute test and positive control compound DMSO stocks 1:100 into 10% FCS DMEM. (6) Change the cell media immediately prior to compound treatment, then add compound+DMEM to cells at 1:10 final dilution (final DMSO concentration is 0.1%). (7) After 2 hours, place the cells on ice, remove the media and the rinse cells once with cold phosphate buffered saline (PBS). Remove PBS and lyse the cells using a cell extraction buffer (CEB) (10 mM Tris, pH 7.4, 100 mM NaCl, 1 mM EDTA, 1 mM NaF, 1 mM EGTA, 20 mM Na4P2O7, 2 mM Na3VO4, 0.5% Deoxycholate, 1% TritonX-100, 10% Glycerol, 0.1% SDS) with added protease inhibitors (10 μg/ml leupeptin, 20 μg/ml aprotinin) (8) Freeze plates on dry ice and store at −80°.
Total and p-Ser-129 α-synuclein levels can be quantified with a sandwich ELISA (e.g., using 1H7 as the capture antibody and biotinylated 5C12 and 11A5 as the total and phospho synuclein reporter antibodies respectively; see e.g., J. Biol. Chem. 2006, 281:29739-29752, the disclosure of which is incorporated herein in its entirety). Alpha-synuclein phosphorylated at serine 129 (p-Ser-129 α-synuclein) levels are normalized to the total synuclein measured in each lysate and the ratio of phosphorylated synuclein to total synuclein as a function of compound concentration can be used to determine IC50 of the compounds.

[2] = PLK TR-FRET peptide assay, class symbols
[3] = comparison with analogous compounds of WO 2011/079118

T1 sequence (Q9H4B4 whole entry): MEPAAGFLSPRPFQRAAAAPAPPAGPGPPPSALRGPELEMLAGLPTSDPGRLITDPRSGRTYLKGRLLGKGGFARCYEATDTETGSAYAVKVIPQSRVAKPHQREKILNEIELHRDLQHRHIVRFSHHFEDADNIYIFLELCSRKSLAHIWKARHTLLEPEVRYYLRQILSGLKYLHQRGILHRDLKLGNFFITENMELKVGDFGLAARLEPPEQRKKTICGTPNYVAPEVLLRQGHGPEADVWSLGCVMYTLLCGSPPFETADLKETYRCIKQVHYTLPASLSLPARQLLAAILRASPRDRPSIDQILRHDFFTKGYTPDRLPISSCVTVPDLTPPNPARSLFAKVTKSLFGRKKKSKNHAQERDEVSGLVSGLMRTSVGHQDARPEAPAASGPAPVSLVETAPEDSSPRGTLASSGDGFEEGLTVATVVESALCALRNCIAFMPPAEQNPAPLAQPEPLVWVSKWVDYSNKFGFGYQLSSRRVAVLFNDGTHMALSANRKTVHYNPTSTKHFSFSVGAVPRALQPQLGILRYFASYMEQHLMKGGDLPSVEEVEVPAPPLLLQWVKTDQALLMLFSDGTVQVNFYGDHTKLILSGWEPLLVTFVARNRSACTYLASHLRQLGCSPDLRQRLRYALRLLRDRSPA

Compound | IC50 (PLK3) [µM] | IC50 (PLK2; [2]) [µM] | selectivity relative to PLK1 (PLK2) | IC50 (PLK2; [3]) [µM] | ratio Plk2 IC50 / Plk1 IC50 (selectivity relative to PLK1) (PLK2; [3]) | activity with respect to PLK2 (PLK2) | IC50 (PLK1; [2]) [µM] | IC50 (PLK1; [3]) [µM] | IC50 [1] [µM] | cell activity [1]
CC[C@@H]1c2nncn2-c2cnc(-n3ccnc3-c3ccc(F)c(F)c3)nc2N1C1CCC1 [Example 1, (R)-5-Cyclobutyl-7-(2-(3,4-difluorophenyl)-1H-imidazol-1-yl)-4-ethyl-4,5-dihydro-[1,2,4]triazolo[4,3-f]pteridine] | 10 to 50 | < 1 | comparable selectivity | 0.092 | 0.0063 | comparable activity | 10 to 50 | 14.6 | 4.4 | comparable cell activity
CC[C@@H]1c2nncn2-c2cnc(-c3c[nH]nc3-c3nccs3)nc2N1C1CCC1 [Example 695, (R)-2-(4-(5-cyclobutyl-4-ethyl-4,5-dihydro-[1,2,4]triazolo[4,3-f]pteridin-7-yl)-1H-pyrazol-3-yl)thiazole] | 1 to 10 | < 1 |  |  |  |  | 1 to 10 |  |  | 
CC[C@@H]1c2nncn2-c2cnc(-n3ccnc3-c3ccccc3)nc2N1C1CCC1 [Example 3, (R)-5-Cyclobutyl-4-ethyl-7-(2-phenyl-1H-imidazol-1-yl)-4,5-dihydro-[1,2,4]triazolo[4,3-f]pteridine] | 1 to 10 | < 1 | comparable selectivity | 0.0085 | 0.019 | comparable activity | < 1 | 0.441 | 0.42 | comparable cell activity
CC[C@@H]1c2nncn2-c2cnc(-n3ccnc3-c3ccc(F)cc3F)nc2N1C1CCC1 [Example 11, (R)-5-Cyclobutyl-7-(2-(2,4-difluorophenyl)-1H-imidazol-1-yl)-4-ethyl-4,5-dihydro-[1,2,4]triazolo[4,3-f]pteridine] | 10 to 50 | < 1 |  |  |  |  | 1 to 10 |  |  | 
CC[C@@H]1c2nncn2-c2cnc(-n3ccnc3-c3cccc(F)c3F)nc2N1C1CCC1 [Example 9, (R)-5-cyclobutyl-7-(2-(2,3-difluorophenyl)-1H-imidazol-1-yl)-4-ethyl-4,5-dihydro-[1,2,4]triazolo[4,3-f]pteridine] | 1 to 10 | < 1 |  |  |  |  | < 1 |  |  | 
CC[C@@H]1c2nncn2-c2cnc(-n3ccnc3-c3ccc(F)cc3)nc2N1C1CCC1 [PCT Example 50, reference compound] |  |  |  | 0.02 |  |  |  | 2.06 |  | 
CC[C@@H]1C(=O)N(C)c2cnc(-n3ccnc3-c3ccccc3F)nc2N1C1CCC1 [PCT Example 49, reference compound] |  |  |  | 0.0045 | 0.058 |  |  | 0.077 | 0.42 | 
CC[C@@H]1c2nncn2-c2cnc(-n3ccnc3-c3ccccc3F)nc2N1C1CCC1 [Example 5, (R)-5-cyclobutyl-4-ethyl-7-(2-(2-fluorophenyl)-1H-imidazol-1-yl)-4,5-dihydro-[1,2,4]triazolo[4,3-f]pteridine] | 1 to 10 | < 1 | comparable selectivity | 0.006 | 0.019 | comparable activity | < 1 | 0.317 | 0.44 | comparable cell activity
CC[C@@H]1c2nncn2-c2cnc(-n3ccnc3-c3ccc(F)cc3)nc2N1C1CCC1 [Example 7, (R)-5-Cyclobutyl-4-ethyl-7-(2-(4-fluorophenyl)-1H-imidazol-1-yl)-4,5-dihydro-[1,2,4]triazolo[4,3-f]pteridine] | 10 to 50 | < 1 | comparable selectivity | 0.04 | 0.0064 | comparable activity | 1 to 10 | 6.26 | 2.9 | comparable cell activity
CC[C@@H]1C(=O)N(C)c2cnc(-n3ccnc3-c3ccccc3)nc2N1C1CCC1 [PCT Example 47, reference compound] |  |  |  | 0.007 | 0.036 |  |  | 0.194 | 0.67 | 
CC[C@@H]1C(=O)N(C)c2cnc(-n3ccnc3-c3ccc(F)c(F)c3)nc2N1C1CCC1 [PCT Example 48, reference compound] |  |  |  | 0.039 | 0.011 |  |  | 3.56 | 4.3 | 
